# Key:
# [1] = test system: T-Rex 293 cell line SC3 cells having increased expression of androgen receptor protein due to exposure to doxycycline; experiment: Cellular growth inhibition, T-Rex 293 SC3 cells with doxycycline (increased androgen receptor expression), CellTiter-Glo; format: cell-based; settings: T-Rex 293 SC3 cells with 10 ng/mL doxycycline (increased androgen receptor expression), 72 hours, CellTiter-Glo 2.0
# How it was run: (§1)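 Doxycycline (10 ng/mL) was either included or omitted to toggle wild-type androgen receptor expression in SC3 cells, a T-Rex 293 clone, grown in stripped-serum, phenol red-free medium. After 72 hours with compound, viable cells were quantified by CellTiter-Glo 2.0.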
# [2] = test system: T-Rex 293 cell line SC3 cells lacking increased expression of androgen receptor protein; experiment: Cellular growth inhibition, T-Rex 293 SC3 cells without doxycycline (no increased androgen receptor expression), CellTiter-Glo; format: cell-based; settings: T-Rex 293 SC3 cells not exposed to doxycycline (no increased androgen receptor expression), 72 hours
# How it was run: as §1
# [3] = test system: VCaP cells; experiment: Cellular growth inhibition assay for VCaP cells, CellTiter-Glo; format: cell-based, human; settings: 72 hours
# How it was run: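 GI50 values come from four-parameter curve fits of luminescence data normalized to a zero baseline. Compound, in medium with 0.5% DMSO, was added one day after plating and left for 72 h before CellTiter-Glo 2.0 addition.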
# [4] = test system: T47D cells; experiment: Cellular Growth Inhibition Assay for T47D Cells (CellTiter-Glo); format: cell-based, human; settings: 72 hours
# How it was run: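 GI50 values derive from four-parameter regression of CellTiter-Glo 2.0 luminescence, using zero luminescence as baseline. Human breast cancer T47D cells (3000/well; DMEM, 10% FBS, 0.2 units/mL insulin) were exposed for 72 h to compound dilutions at 0.5% DMSO, with dosing starting 24 h after seeding.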
SMILES,GI50 [1] [nM],GI50 [2] [nM],GI50 ([3]; Homo sapiens) [nM],GI50 ([4]; Homo sapiens) [nM],GI50 [3] [nM],GI50 [4] [nM]
"Cn1cc(-c2cc(C(C)(C)O)ccc2OC2CCC(N3CC(OC4CCN(c5ncc(C(=O)N[C@H]6C(C)(C)[C@H](Oc7ccc(C#N)c(Cl)c7)C6(C)C)cn5)CC4)C3)CC2)c2cc[nH]c2c1=O (stereo partly drawn) [Compound I-288, N-[3-(3-chloro-4-cyano-phenoxy)-2,2,4,4-tetramethyl-cyclobutyl]-2-[4-[1-[4-[4-(1-hydroxy-1-methyl-ethyl)-2-(6-methyl-7-oxo-1H-pyrrolo[2,3-c]pyridin-4-yl)phenoxy]cyclohexyl]azetidin-3-yl]oxy-1-piperidyl]pyrimidine-5-carboxamide]",< 500,< 500,< 500,< 500,,
CCS(=O)(=O)Nc1ccc(Oc2cccc(N(C)C3CN(c4ncc(C(=O)N[C@H]5C(C)(C)[C@H](Oc6ccc(C#N)c(Cl)c6)C5(C)C)cn4)C3)c2)c(-c2cn(C)c(=O)c3[nH]ccc23)c1 [Compound I-31],500 to 1500,< 500,< 500,< 500,,
CC(C)c1ccc(Oc2cccc(CCOC3CCN(c4ncc(C(=O)N[C@H]5C(C)(C)[C@H](Oc6ccc(C#N)c(Cl)c6)C5(C)C)cn4)CC3)c2F)c(-c2cn(C)c(=O)c3[nH]ccc23)c1 [Compound I-148],< 500,> 3000,,,< 500,500 to 1500
Cn1cc(-c2cc(C(C)(C)O)ccc2Oc2ccc(CCCC3CN(c4ncc(C(=O)N[C@H]5C(C)(C)[C@H](Oc6ccc(C#N)c(Cl)c6)C5(C)C)cn4)CCO3)cc2)c2cc[nH]c2c1=O (stereo partly drawn) [Compound I-307],< 500,> 3000,,,< 500,< 500
CC(C)c1ccc(Oc2cccc(N3CC(N4CCN(c5ncc(C(=O)N[C@H]6C(C)(C)[C@H](Oc7ccc(C#N)c(Cl)c7)C6(C)C)cn5)CC4)C3)c2F)c(-c2cn(C)c(=O)c3[nH]ccc23)c1 [Compound I-123],< 500,> 3000,> 3000,500 to 1500,,
CCS(=O)(=O)c1ccc(OC(CCCOC2CCN(c3ncc(C(=O)N[C@H]4C(C)(C)[C@H](Oc5ccc(C#N)c(Cl)c5)C4(C)C)cn3)CC2)C2CC2)c(-c2cn(C)c(=O)c3[nH]ccc23)c1 (stereo partly drawn) [Compound I-236],< 500,< 500,,,< 500,< 500
Cn1cc(-c2cc(C(C)(C)O)ccc2Oc2ccc(N3CCC(CC4CN(c5ncc(C(=O)N[C@H]6C(C)(C)[C@H](Oc7ccc(C#N)c(Cl)c7)C6(C)C)cn5)C4)CC3)cc2)c2cc[nH]c2c1=O [Compound I-350],< 500,< 500,< 500,< 500,,
CCS(=O)(=O)Cc1ccc(Oc2cccc(OC(C)(C)CCC3CCN(c4ncc(C(=O)N[C@H]5C(C)(C)[C@H](Oc6ccc(C#N)c(Cl)c6)C5(C)C)cn4)CC3)c2)c(-c2cn(C)c(=O)c3[nH]ccc23)c1 [Compound I-293],< 500,> 3000,,,< 500,< 500
CCS(=O)(=O)c1ccc(Oc2ccc(CCCC3CCN(c4ncc(C(=O)N[C@H]5C(C)(C)[C@H](Oc6ccc(C#N)c(Cl)c6)C5(C)C)cn4)CC3)c(F)c2)c(-c2cn(C)c(=O)c3[nH]ccc23)c1 [Compound I-285],< 500,> 3000,< 500,< 500,,
Cn1cc(-c2ccccc2Oc2cccc(CCOC3CCN(c4ncc(C(=O)N[C@H]5C(C)(C)[C@H](Oc6ccc(C#N)c(Cl)c6)C5(C)C)cn4)CC3)c2F)c2cc[nH]c2c1=O [Compound I-149],< 500,< 500,,,< 500,500 to 1500
Cn1cc(-c2cc(C(C)(C)O)ccc2Oc2cccc(OCCC3CC4(C3)CN(c3ncc(C(=O)N[C@H]5C(C)(C)[C@H](Oc6ccc(C#N)c(Cl)c6)C5(C)C)cn3)C4)c2F)c2cc[nH]c2c1=O [Compound I-210],< 500,< 500,,,< 500,500 to 1500
"CCS(=O)(=O)c1ccc(-c2cn(C)c(=O)c3[nH]ccc23)c(-n2cc(CCC3CCN(c4ncc(C(=O)NC5C(C)(C)C(Oc6ccc(C#N)c(Cl)c6)C5(C)C)cn4)CC3)ncc2=O)c1 (stereo not drawn) [Compound I-292, N-[3-(3-chloro-4-cyano-phenoxy)-2,2,4,4-tetramethyl-cyclobutyl]-2-[4-[2-[4-[5-ethylsulfonyl-2-(6-methyl-7-oxo-1H-pyrrolo[2,3-c]pyridin-4-yl)phenyl]-5-oxo-pyrazin-2-yl]ethyl]-1-piperidyl]pyrimidine-5-carboxamide]",< 500,< 500,< 500,< 500,,

# — patent publication US20250388605A1, “HETEROBIFUNCTIONAL COMPOUNDS AND METHODS OF TREATING DISEASE” (Halda Therapeutics OpCo, Inc., priority 2022, published 2025)
